# Assay results as given in patent EP4039094A1, “NOVEL ANTIFUNGAL COMPOUNDS” (Max-Planck-Gesellschaft zur Förderung der Wissenschaften …, priority 2021, dated 2022).
# Read-outs that look alike come from different tables or passages of the source.
# Molecular target: T1, Stp1/Stp4/Stp3 subcomplex (Mycosarcoma maydis, UniProt A0A0D1C5E3+A0A0D1CU07+A0A0D1EAN2)
# T1 sequence (A0A0D1CU07 29-515): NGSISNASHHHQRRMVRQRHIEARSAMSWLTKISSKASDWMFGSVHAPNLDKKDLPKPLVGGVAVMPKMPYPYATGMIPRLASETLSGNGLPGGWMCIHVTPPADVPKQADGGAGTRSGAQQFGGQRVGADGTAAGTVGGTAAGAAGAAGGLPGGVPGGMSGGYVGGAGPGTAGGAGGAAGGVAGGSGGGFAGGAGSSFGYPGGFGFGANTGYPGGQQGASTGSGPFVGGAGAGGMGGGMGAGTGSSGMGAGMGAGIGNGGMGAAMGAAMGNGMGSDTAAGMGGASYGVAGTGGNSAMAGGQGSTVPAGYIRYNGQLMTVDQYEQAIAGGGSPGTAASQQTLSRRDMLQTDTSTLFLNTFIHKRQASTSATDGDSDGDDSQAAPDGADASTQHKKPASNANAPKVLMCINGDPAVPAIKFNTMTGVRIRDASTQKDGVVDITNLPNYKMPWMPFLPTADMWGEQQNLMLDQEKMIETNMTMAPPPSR
# T1 sequence (A0A0D1C5E3 24-129): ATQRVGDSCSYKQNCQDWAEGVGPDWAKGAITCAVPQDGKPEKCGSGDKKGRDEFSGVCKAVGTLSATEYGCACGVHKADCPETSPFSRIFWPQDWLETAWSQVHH
# T1 sequence (A0A0D1EAN2 25-327): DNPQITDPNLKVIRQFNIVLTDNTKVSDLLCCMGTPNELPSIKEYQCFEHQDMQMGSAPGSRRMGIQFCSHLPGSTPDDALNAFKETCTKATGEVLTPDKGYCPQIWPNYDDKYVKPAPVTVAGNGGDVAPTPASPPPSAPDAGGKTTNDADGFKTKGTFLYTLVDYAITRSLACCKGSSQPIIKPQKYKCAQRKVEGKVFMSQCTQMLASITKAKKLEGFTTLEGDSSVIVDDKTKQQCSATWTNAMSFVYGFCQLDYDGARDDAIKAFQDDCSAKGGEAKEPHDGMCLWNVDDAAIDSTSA
# Assay: Alamar Blue viability assay in S. cerevisiae 2-hybrid strain NL73 (viability depends on Stp complex formation)
# Format: cell-based, U. maydis
# Source text: To develop a screening platform based on Stp complex formation, a Saccharomyces cerevisiae 2-hybrid system was used. […] After co-transformation, reporter gene transcription is activated only if the two fusion proteins interact in the yeast nucleus. Moreover, the S. cerevisiae strain AH109 harbours the reporter genes ADE2 and HIS3, which encode for two enzymes that are crucial for adenine (Ade) and histidine (His) biosynthesis and thereby enable nutritional selection as a read-out for the interaction between proteins. In the following experiments, growth on high-stringency synthetic defined (SD) medium (SD -Leu -Trp -Ade -His) was used to identify if the complex members interact between them causing expression of ADE2 and HIS3. Additionally, strains were also grown on low-stringency medium (SD -Leu -Trp) to confirm their viability. […] All experiments were done with three independent transformants to exclude false positives due to spontaneous mutations.
# The S. cerevisiae strain AH109 from Clontech (Saint-Germain-en-Laye, France) is auxotrophic for tryptophan, leucine, adenine and histidine. In addition, lacz is under control of the MEL1 UAS to be used as readout for quantitative β-galactosidase assays.
# The resulting test strain NL73 (AD-Stp4/BD-Stp1/myc-Stp3) expresses the Stp1/Stp4/Stp3 subcomplex. NL73 carries the following three plasmids: pGBKT7-stp1: pGBKT7 vector expressing proteins fused to the GAL4 DNA binding domain (DNA-BD). pGBKT7 also contains the T7 promoter, a c-Myc epitope tag, and a MCS. The vector carries a Kanamycin resistance gene (Kanr) for selection in E. coli and the TRP1 nutritional marker for selection in yeast. pGAD-stp4: pGADT7 vector expressing proteins fused to a GAL4 activation domain (AD). The GAL4 AD fusion contains an N-terminal nuclear localization signal that targets the protein to the yeast nucleus, and a HA Tag, located between the GAL4 AD and the protein of interest. The vector carries an ampicillin resistance gene (Ampr) for selection in E. coli and a LEU2 nutritional marker for selection in yeast. pYEA-stp3-myc: pYEA vector expressing proteins under the control of the phosphoglycerate kinase promoter. The vector carries an ampicillin resistance gene (Ampr) for selection in E. coli and an ADE2 nutritional marker for selection in yeast. As control strain, NL70 containing empty vectors was generated (AH109Δabc9 pGAD::LEU2 pGBK::TRP1 pYEA::ADE2).
# After that, 25 µl of NL73 cell suspension were dispensed into the assay plates using Multidrop Combi (Thermofisher Scientific) giving a final screening concentration of 10 µM. One column of the assay plate was filled with 25 µl of NL70 control strain cell suspension as negative control. Plates were sealed with Breathe-Easy sealing membrane (Sigma, Z380059), lidded and incubated in a humid chamber over night at 30°C and 140 rpm in an HT Multitron Pro (Infors). […] For the viability assay, the alamar Blue HS Cell Viability reagent (Invitrogen, #A50101) was pre-diluted using an equal amount of dVE-H2O and 5 µl of diluted Alamar Blue were added to the screening plates using Multidrop Combi. The plates were sealed again and incubated for 4 h at room temperature, unlidded. […] Screening data was normalized to DMSO-treated NL73 cells (that received DMSO in the same concentration as in samples where compounds dissolved in DMSO were added) being 100% and DMSO-treated NL70 cells representing 0% viability and analyzed with Quattro Software Suite (Quattro Research GmbH).
# [1] = inhibitory activity on NL73 viability, Table 6, read-out: IC50
# [2] = Alamar Blue assay, Table 8, read-out: IC50
SMILES,"IC50 (Alamar Blue assay, Table 8)",IC50 [1] [µM],IC50 [2] [µM]
"O=S(=O)(Nc1cnc2[nH]ncc2c1)c1cc(F)ccc1F [Ref2-B, reference compound]",inactive,,
CCn1c2c(c(SCc3cccc(C)c3)nc1=O)CCC2 [Compound 2-C],,6.2,
Cn1ncc2cc(NS(=O)(=O)c3cc(F)ccc3F)cnc21 [Compound 4-B],,,10.2
"CC(C)n1ncc2cc(NS(C)(=O)=O)cnc21 [Ref1-B, reference compound]",inactive,,
CCCn1c2c(c(SCc3ccccc3F)nc1=O)CCC2 [Compound 3-C],,6.4,
O=S(=O)(Nc1cnc2c(cnn2C2CCCCC2)c1)c1cc(F)ccc1F [Compound 3-B],,,2.2
